Values after ≈ are worked out from the molar mass of the structure shown.
What was measured:
K562 cells [1] = test: CCK-8 cell viability assay, K562 cells; type: cell-based, human; details: CCK-8, 48 h; for IC50: Homo sapiens, K562
Description: (§1) Human CML cell line K562 cells and human umbilical vein endothelial cells (HUVECs) were purchased from ATCC (Manassas, USA). Drug resistant K562 (K562R) cells were provided by the Chinese Academy of Medical Science Hematology Institute. The cells were cultured in RPMI-1640 medium containing 10% fetal bovine serum (FBS) in cell culture flasks under a humidified 5% CO2 and 95% air atmosphere at 37 °C. Bone marrow (BM) cells from mice or patients were cultured in DMEM/F12 medium supplemented with 20% FBS.
(§2) Cell viability was examined using the cell counting kit-8 (CCK-8) assay (YEASEN China). In brief, cells (1 × 10^4 cells/well) in confluent 96-well cell culture plates were treated with different concentrations of coumarin derivative (1, 5, 10, 25, 50, 100, 200, and 400 μg/mL) for 48 h. Then 10 μL CCK-8 reagents were added into every well for 2 h of incubation. Optical density (OD) was detected using the microplate reader (BioTek, Germany). The values were then fit into a non-linear regression curve and the IC50 was calculated using GraphPad Prism.

HUVECs = test: CCK-8 cell viability assay (cytotoxicity), HUVECs; type: cell-based, human; details: CCK-8, 48 h; for IC50: Homo sapiens, HUVEC
Description: as §1, §2

K562R cells = test: CCK-8 cell viability assay, drug resistant K562 cells; type: cell-based, human; details: CCK-8, 48 h; for IC50: Homo sapiens, K-562R
Description: as §1, §2

[2] = test system: CD34+ hematopoietic stem and progenitor cells (HSPCs); test: CCK-8 cell viability assay (cytotoxicity), HSPCs; type: cell-based, human; details: CCK-8, 48 h; for IC50: Homo sapiens
Text: (§3) Human CD34^+ HSCPs were obtained from the specimens of consenting healthy donors or CML patients at Xijing Hospital, and purified using Human Whole Blood CD34 Positive Selection Kit II (StemCell Technologies, China). Briefly, the human bone marrow was homogenized, and the top layering with Ficoll-Paque (GE Healthcare, USA) interphase containing immune cells and CD34^+ HSPCs was collected and washed with PBS, then CD34^+ HSPCs were purified according to the protocol of EasySep human CD34 positive selection kit (StemCell Technologies, China). CD34^+ cells were cultured in StemSpan-ACF medium II supplemented with 50 ng/mL human stem cell factor, 10 ng/mL thrombopoietin, 20 ng/mL FMS-related tyrosine kinase 3 ligand, 20 ng/mL interleukin-6 and 1% penicillin-streptomycin solution.
as §2

K562 cells [3] = test: Annexin V-FITC/PI flow cytometry, apoptosis of K562 cells; type: cell-based, human; details: 50, 100, 200 μg/mL, 24 h, vs vehicle
Description: (§4) Apoptotic cells were quantified with an FITC Annexin V Apoptosis detection kit (Becton Dickinson Biosciences, USA) according to manufacturer’s protocol. Briefly, cells at 1 × 10^5 cells/mL were incubated with various concentrations (50, 100 and 200 μg/mL) of compound DBH2 for 24 h at 37 °C. Cells were harvested and re-suspended in the binding buffer, then stained with 5 μL Annexin V-FITC and 5 μL propidium iodide (PI) for 15 min at room temperature in the dark. The apoptotic index was immediately determined by FACSCalibur Flow Cytometer (Becton Dickinson Biosciences, CA). For the cell cycle, K562 cells were harvested and fixed in 75% ethanol overnight at 4 °C, then re-suspended in pre-cooling PBS containing 0.1 mg/mL RNase and 0.02 mg/mL PI for 30 min at 37 °C. After the treatment of compound DBH2 or 1% DMSO as vehicle control, the cell cycle was analyzed using the flow cytometry and Cell Quest software (BD Biosciences, USA).

[4] = test system: bone marrow cells from SCL-tTA-BCR/ABL transgenic model mice; test: Annexin V/PI apoptosis, bone marrow cells from SCL-tTA-BCR/ABL transgenic model mice; type: cell-based, mouse; details: 50, 100, 200 μg/mL
Description: as §1
as §4, with “For the cell cycle, K562 cells were harvested and fixed in 75% ethanol overnight at 4 °C, then re-suspended in pre-cooling PBS containing 0.1 mg/mL RNase and 0.02 mg/mL PI for 30 min at 37 °C.” left out, “USA). […]” for “USA).”

[5] = test system: bone marrow cells of recipients (BCR/ABL model mice); test: Annexin V/PI apoptosis, bone marrow cells of BMT recipients, DBH2 with or without imatinib; type: cell-based, mouse; details: DBH2 at various concentrations with or without 1 μM imatinib
Description: (§5) The SCL-tTA-BCR/ABL transgenic model mice were used as donor, and sub-lethally irradiated (850 rad) wild type mice were use as receiver, once the bone marrow transplantation (BMT) was performed from the donor mice to the recipient mice, the CML-like model mice was established. […] Caspase-3 knock-out mice were kindly gifted from the lab of Professor Hua Han, the Fourth Military Medical University.

ROCK1 = test: Western blot, ROCK1 protein in K562 cells; type: cell-based, human; details: K562, 50, 100, 200 μg/mL
Description: (§6) Cells were washed with Tris-buffered saline (TBS) and lysed by adding 100 μL of RIPA Lysis Buffer System containing protease inhibitors. Then, cell extraction was subjected to gel electrophoresis and transferred onto a polyvinylidene difluoride membrane (Millipore, Germany). After blocking with 3% BSA in TBS for 2 h, the membrane was probed with primary antibodies overnight at 4 °C, the antibody against PARP1 (Proteintech, USA) or ROCK1 proteins (Proteintech, USA) was diluted at 1:1000, and the antibody for GAPDH (Abcam, UK) was diluted at 1:1000. After secondary antibodies labeled with infrared dyes were added, the signals were visualized using the Odyssey Infrared Imaging System (Biosciences, USA).

STAT5 = test: Quantitative RT-PCR, STAT5 mRNA in K562 cells; type: cell-based, human; details: K562, 50, 100, 200 μg/mL
Description: (§7) RNA was extracted from cells using an RNA extraction kit according to the manufacturer protocol. After reverse transcription, the real-time PCR was performed for three independent experiments with a 7300 real-time PCR system (Applied Biosystems, USA) using SYBR Premix ExTaq (Takara, China). The relative expression of genes was calculated by the 2^-△△Ct method, with normalization to GAPDH levels. Amplified products were visualized with an Alpha Imager 2200 digital imaging system (Alpha Innotech, USA). The primers (forward and backward) used were depicted in Table S1.

[6] = test system: bone marrow myeloid cells from wild type mice; test: Annexin V/PI apoptosis, bone marrow myeloid cells from WT mice (Fig 5); type: cell-based, mouse; details: WT, 50, 100, 200 μg/mL, 24 h
Description: as §4
(§8) The SCL-tTA-BCR/ABL transgenic model mice were used as donor, and sub-lethally irradiated (850 rad) wild type mice were use as receiver, once the bone marrow transplantation (BMT) was performed from the donor mice to the recipient mice, the CML-like model mice was established. After 8 weeks, the bone marrow reconstitution was confirmed, and the effect of treatments to the survival rates of recipient mice was observed. […]

K562 cells [7] = test: Transmission electron microscopy of K562 cells; type: cell-based, human; details: K562, 100 μg/mL, post 24 h
Description: CML cells were seeded and grown at […] in three flasks.

[8] = test system: bone marrow myeloid cells from caspase-3 gene knock-out mice; test: Annexin V/PI apoptosis, bone marrow myeloid cells from caspase-3 knock-out mice; type: cell-based, mouse
Description: as §4, §8

[9] = test system: bone marrow cells from CML patients; test: Annexin V/PI apoptosis, bone marrow cells from CML patients; type: cell-based, human
Description: as §1
The ages of three male CML patients […], all of them were newly diagnosed chronic phase, and before starting TKI therapy. Informed consent was obtained from all participants. This study adhered to the World Medical Association’s Declaration of Helsinki and its amendments for Ethical Human Research including confidentiality, privacy, and data management.
(§9) Apoptotic cells were quantified with an FITC Annexin V Apoptosis detection kit (Becton Dickinson Biosciences, USA) according to manufacturer’s protocol. […] The apoptotic index was immediately determined by FACSCalibur Flow Cytometer (Becton Dickinson Biosciences, CA). […] After the treatment of compound DBH2 or 1% DMSO as vehicle control, the cell cycle was analyzed using the flow cytometry and Cell Quest software (BD Biosciences, USA).

STAT3 = test: Quantitative RT-PCR, STAT3 mRNA in K562 cells; type: cell-based, human; details: K562, 50, 100, 200 μg/mL
Description: as §7

K562 cells [10] = test: Cell cycle distribution by flow cytometry, K562 cells; type: cell-based, human; details: K562, 100 μg/mL; vehicle 33.9%
Description: as §4

PARP1 = test: Western blot, PARP1 protein in K562 cells; type: cell-based, human; details: K562, 100 and 200 μg/mL, vs untreated control
Description: as §6

[11] = test system: CD34+ LSCs from CML patients; test: Apoptosis of CD34+ LSCs from CML patients; type: cell-based, human; details: 100 μg/mL, 24 h
Text: as §3
as §9, with “protocol. Briefly, cells at 1 × 10^5 cells/mL were incubated with various concentrations (50, 100 and 200 μg/mL) of compound DBH2 for 24 h at 37 °C.” for “protocol.”

[12] = test system: CML-like model mice (recipients of SCL-tTA-BCR/ABL bone marrow); test: Survival of CML-like model mice after bone marrow transplantation; type: in vivo, mouse; details: DBH2 100 mg/kg, 32 days with two-day interval post-BMT, intragastric
Description: as §5

[13] = test system: human cervical cancer HeLa cells; design: method as in PMID 18210747; details: G0/G1 arrest and apoptosis; cited from earlier work

Row | Compound | IC50 (K562 cells [1]) [µg/mL] | IC50 (HUVECs) [µg/mL] | IC50 (K562R cells) [µg/mL] | IC50 [2] [µg/mL] | further results
1 | O=c1oc2ccccc2c(O)c1C(c1ccccc1)c1c(O)c2ccccc2oc1=O [DBH1, 3,3′-benzylidene-bis-(4-hydroxycoumarin)] | 31.3 (≈ 75.8 µM) | 85.7 (≈ 208 µM) | 33.4 (≈ 81 µM) | 76.3 (≈ 185 µM) | 
2 | O=c1oc2ccccc2c(O)c1C(c1cc(F)cc(F)c1)c1c(O)c2ccccc2oc1=O [DBH2, 3,3′-(3,5-difluorobenzylidene)-bis-(4-hydroxycoumarin)] | 36.3 (≈ 81 µM) | 232 (≈ 518 µM) | 38.8 (≈ 86.5 µM) | 225 (≈ 502 µM) | apoptosis in CML cells (K562) (K562 cells [3]): trigger significant apoptosis in CML cells with concentration-dependent responses; apoptosis in bone marrow cells from CML model mice compared to WT mice [4]: induce the remarkable apoptosis; number of apoptotic cells [5]: ascendant number of apoptotic cells; expression of ROCK1 protein (ROCK1): up-regulated the expression of ROCK1 in dose-dependent manner; expression of STAT5 mRNA (STAT5): inhibit the expression of STAT3 and STAT5 in a dose-dependent manner; Annexin V positive cells [6]: increasing number of Annexin V positive cells; morphological observation (TEM) (K562 cells [7]): typical apoptotic-body in nuclear appeared; DBH2-induced apoptosis compared to the cells from wild type mice ([8]; caspase-3 knock-out vs WT): significant less; Annexin V positive cells ([8]; caspase-3 knock-out, 50, 100, 200 μg/mL, 24 h): increasing number of Annexin V positive cells; apoptosis of bone marrow cells from CML patients ([9]; 50, 100 and 200 μg/mL): promoted the apoptosis of bone marrow cells from CML patients in dose-dependent manner; induced apoptosis in bone marrow cells from CML patients compared to its effects on CD34+ LSC ([9]; bone marrow cells vs CD34+ LSC): almost twice fold; expression of STAT3 mRNA (STAT3): inhibit the expression of STAT3 and STAT5 in a dose-dependent manner; percentage of cells in the G2/M phase (K562 cells [10]): 41.3%; expression of PARP1 protein (PARP1): up-regulate the expression of PARP1 significantly; CD34+ LSCs developed into the apoptotic process [11]: more than twice fold; survival of treated mice [12]: remarkably prolonged about two times
3 | O=c1oc2ccccc2c(O)c1C(c1cc(Cl)cc(Cl)c1)c1c(O)c2ccccc2oc1=O [DBH3, 3,3′-(3,5-dichlorobenzylidene)-bis-(4-hydroxycoumarin)] | 36.5 (≈ 75.8 µM) | 52.3 (≈ 109 µM) | 45.7 (≈ 95 µM) | 72.4 (≈ 150 µM) | 
4 | O=c1oc2ccccc2c(O)c1C(c1cc(Br)cc(Br)c1)c1c(O)c2ccccc2oc1=O [DBH4, 3,3′-(3,5-dibromobenzylidene)-bis-(4-hydroxycoumarin)] | 36.5 (≈ 64.1 µM) | 88.7 (≈ 155 µM) | 39.9 (≈ 69.9 µM) | 83.1 (≈ 146 µM) | 
5 | COc1cc(OC)cc(C(c2c(O)c3ccccc3oc2=O)c2c(O)c3ccccc3oc2=O)c1 [DBH5, 3,3′-(3,5-dimethoxybenzylidene)-bis-(4-hydroxycoumarin)] | 30.4 (≈ 64.5 µM) | 50.3 (≈ 106 µM) | 34.4 (≈ 72.7 µM) | 46.4 (≈ 98.2 µM) | 
6 | O=c1oc2ccccc2c(O)c1C(c1cc(C(F)(F)F)cc(C(F)(F)F)c1)c1c(O)c2ccccc2oc1=O [DBH6, 3,3′-(3,5-ditrifluoromethylbenzylidene)-bis-(4-hydroxycoum-arin)] |  |  |  |  | IC50, K562 cells (K562 cells [1]): 31.32 µg/mL (≈ 57.1 µM); IC50, HUVECs (HUVECs): 72.42 µg/mL (≈ 132 µM); IC50, K562 R cells (K562R cells): 35.68 µg/mL (≈ 65.1 µM); IC50, HSPCs [2]: 67.75 µg/mL (≈ 124 µM)
7 | COc1cccc2c1C(=O)c1c(O)c3c(c(O)c1C2=O)C[C@@](O)(C(=O)CO)C[C@@H]3O[C@H]1C[C@H](N)[C@H](O)[C@H](C)O1 [Doxorubicin, reference compound] | 16.4 (≈ 30.2 µM) | 8.76 (≈ 16.1 µM) | 24.1 (≈ 44.4 µM) | 8.04 (≈ 14.8 µM) | 
8 | O=c1ccc2ccccc2o1 [coumarin] |  |  |  |  | IC50 [13]: 54.2 µM

Reference: article PMC10201669, “A novel coumarin derivative DBH2 inhibits proliferation and induces apoptosis of chronic myeloid leukemia cells” (Genes & Diseases, 2022)
